Data taken from patent US20230028658A1, “EXPANDED DOSAGE REGIMENS FOR INTEGRIN INHIBITORS” (Pliant Therapeutics, Inc., priority 2021, published 2023).

How the values were obtained:
COL1A1 = COL1A1 expression in precision cut lung slices (PCLS) from human IPF lung tissue (FIG. 6E); format: cell-based; conditions: concentrations ranging from 200 pM to 1 μM, versus 0.1% DMSO control
Protocol: FIG. 6D is a bar graph showing relative expression of COL1A1 in precision cut lung slices (PCLS) from idiopathic pulmonary fibrosis (IPF) lung tissue upon exposure to Compound 5, clinical standard of care compounds nintedanib (Nin) and pirfenidone (Pirf), and an ALK5 inhibitor, all versus DMSO control.
COL1A1 expression is also graphed for the PCLS in the presence of 0.1% DMSO control, and an Alk5 inhibitor at 1 μM.

[1] = test system: IPF-derived human lung fibroblasts; test: LAP adhesion binding assay, IPF-derived human lung fibroblasts (xCELLigence cell index); format: cell-based; conditions: FIG. 3B, adhesion to LAP
Protocol: Two latency associated peptide (LAP) adhesion binding assays were devised using primary human lung cells, including normal (healthy) human bronchial epithelial cells and human lung fibroblasts (healthy and IPF).
Human lung fibroblasts derived from normal and IPF lung tissue are known to express αvβ1 integrin. The IPF-derived human lung fibroblasts were prepared for the assay by dissociation with trypsin/EDTA, and were seeded at 20,000 cells per well on 96 well plates (ACEA Bioscience E-plate View, Acea Biosciences; San Diego, Calif.) previously coated with 5 μg/ml of recombinant human LAP (R&D Systems; Minneapolis, Minn.) and blocked with 4% bovine serum albumin. Cell index (electrical impedance) was measured to assess cell attachment/spreading every 3 minutes for 24 hours at 37° C./5% CO2 using the xCELLigence RTCA MP Instrument (Acea Biosciences; San Diego, Calif.). […] In the assay, the IPF-derived human lung fibroblasts were separately incubated with: the αvβ1-selective small molecule inhibitor; the selective antibody αvβ6 inhibitor, 3G9; and compound 5.

[2] = test system: Type I Collagen gene Col1a1 expression; test: Precision cut lung slices of mice under acute bleomycin exposure, Col1a1 expression; format: cell-based, Mice (C57BL/6); conditions: acute bleomycin PCLS, 3 days culture, normalized to DMSO; FIG. 5A
Protocol: Mice (C57BL/6) were administered 3 U/kg of bleomycin (Teva Pharmaceuticals; North Wales, Pa.) on day 0 via oropharyngeal aspiration while under anesthesia. On day 14, precision cut lung slices were obtained. Following euthanization, 2% low gelling temp agarose was injected into the mouse lungs via the trachea. […] The lobes were then subjected to precision slicing to obtain samples for culture using a microtome (Compresstome VF-300-0Z, Precisionary; Greenville, N.C.). Individual slices were distributed in a multiwell culture plate and cultured for 3 days under control (DMSO) and test compound conditions.

COL1A1 expression = test: PCLS from IPF lung tissue, seven days, COL1A1 expression; format: cell-based, human; conditions: PCLS from a single IPF lung tissue sample, Compound 5 200 pM to 1 μM, significant reduction observed ≥2 nM, FIG. 6E
Protocol: PCLS from 5-7 idopathic pulmonary fibrosis (IPF) lung tissue samples were cultured for seven days with one of: DMSO; Compound 5 at 200 nM; nintedanib at 75 nM; pirfenidone at 50 μm; a combination of Compound 5 at 200 nM and nintedanib at 75 nM; a combination of Compound 5 at 200 nM and pirfenidone at 50 μm; or an Alk5 inhibitor at 1 μm. […] FIG. 6D is a bar graph showing relative expression of COL1A1 in precision cut lung slices (PCLS) from idopathic pulmonary fibrosis (IPF) lung tissue upon exposure to Compound 5, clinical standard of care compounds nintedanib (Nin) and pirfenidone (Pirf), and an ALK5 inhibitor, all versus DMSO control.
PCLS from a single IPF lung tissue sample were cultured for seven days with Compound 5 at concentrations of 200 pM, 2 nM, 60 nM, 200 nM, and 1 μM, along with 0.1% DMSO control and an Alk5 inhibitor at 1 μM. […] COL1A1 expression is also graphed for the PCLS in the presence of 0.1% DMSO control, and an Alk5 inhibitor at 1 μM.

[3] = First-in-human SAD and MAD pharmacokinetics (Example B12); format: in vivo; conditions: plasma, healthy subjects, oral solution, SAD 15-75 mg and MAD 10-40 mg, read-out: calculated half life
Protocol: Healthy human subjects (N=85) were selected for single ascending dose (SAD) and multiple ascending dose (MAD) first-in-human studies. A solution for oral administration was prepared, containing 10 mg/mL of compound 5 in a 50:50 mixture of ORA-SWEET® SF (PERRIGO®, Allegan, Mich.) and sterile water for irrigation. Sufficient solution was administered orally to the subjects to provide between 15 mg/dose and 75 mg/dose of compound 5 in the SAD study and between 10 mg/dose and 40 mg/dose of compound 5 in the MAD study. Concentrations of compound 5 were measured in the subjects by obtaining a sample of plasma from each subject at desired intervals, and subjecting the plasma to liquid chromatography-mass spectrometry-mass spectrometry (LC-MS/MS), with quantification using a calibration curve determined from a range of solutions at standardized concentrations. The lower limit of quantitation (LLOQ) of the assay was 1 ng/mL and the calibration curve range was 1 to 500 ng/mL.

pSMAD2/SMAD2 = pSMAD2/SMAD2 in BALF cells of healthy participants, Example B15 Part 1; format: in vivo, human; conditions: preliminary analysis
From the text: The primary objective of this study was to assess the pharmacodynamic changes in biomarkers of TGF-β activation in alveolar macrophages from bronchoalveolar lavage fluid (BALF) following dosing of Compound 5 for 7 days. Secondary objectives of this study were to assess the safety and tolerability of Compound 5 following dosing for 7 days, the plasma PK of Compound 5, and the PK/PD (BALF biomarkers) relationship.
This study was designed as a randomized, double-blind, placebo-controlled study in 48 healthy participants conducted in 2 parts. Part 1 has completed clinical conduct, and Part 2 is ongoing. In Part 1, 24 participants were randomized 1:1:1 to receive Compound 5 80 mg QD, Compound 5 160 mg QD, or placebo QD. A safety review committee reviewed the safety and PK data from Part 1 and recommended doses for Part 2. In Part 2, 24 participants were randomized 1:1:1 to receive Compound 5 320 mg QD (Compound 5 in the morning and matched placebo in the afternoon), Compound 5 160 mg twice daily (BID), or placebo BID. In both parts, samples of BALF were collected from the middle lobe or lingula via bronchoscopy prior to dosing (Day −1) and at 6 and 24 hours post morning dose on Day 7. BALF samples were assessed for TGF-β receptor kinase activity (pSMAD2/SMAD2) in pelleted cells (primarily alveolar macrophages) and additional cell material was used to measure TGF-β signaling pathway-related gene expression levels. Plasma samples were collected to measure Compound 5 concentrations and determine protein binding. Safety was monitored via open-ended AE inquiry and clinical chemistry, hematology, vital sign, and 12-lead ECG parameters.

αvβ6 = αvβ6 (Homo sapiens, UniProt P06756+P18564); test: IC50 of αvβ6 adjusted for protein binding
Sequence of αvβ6 (P06756 31-1048): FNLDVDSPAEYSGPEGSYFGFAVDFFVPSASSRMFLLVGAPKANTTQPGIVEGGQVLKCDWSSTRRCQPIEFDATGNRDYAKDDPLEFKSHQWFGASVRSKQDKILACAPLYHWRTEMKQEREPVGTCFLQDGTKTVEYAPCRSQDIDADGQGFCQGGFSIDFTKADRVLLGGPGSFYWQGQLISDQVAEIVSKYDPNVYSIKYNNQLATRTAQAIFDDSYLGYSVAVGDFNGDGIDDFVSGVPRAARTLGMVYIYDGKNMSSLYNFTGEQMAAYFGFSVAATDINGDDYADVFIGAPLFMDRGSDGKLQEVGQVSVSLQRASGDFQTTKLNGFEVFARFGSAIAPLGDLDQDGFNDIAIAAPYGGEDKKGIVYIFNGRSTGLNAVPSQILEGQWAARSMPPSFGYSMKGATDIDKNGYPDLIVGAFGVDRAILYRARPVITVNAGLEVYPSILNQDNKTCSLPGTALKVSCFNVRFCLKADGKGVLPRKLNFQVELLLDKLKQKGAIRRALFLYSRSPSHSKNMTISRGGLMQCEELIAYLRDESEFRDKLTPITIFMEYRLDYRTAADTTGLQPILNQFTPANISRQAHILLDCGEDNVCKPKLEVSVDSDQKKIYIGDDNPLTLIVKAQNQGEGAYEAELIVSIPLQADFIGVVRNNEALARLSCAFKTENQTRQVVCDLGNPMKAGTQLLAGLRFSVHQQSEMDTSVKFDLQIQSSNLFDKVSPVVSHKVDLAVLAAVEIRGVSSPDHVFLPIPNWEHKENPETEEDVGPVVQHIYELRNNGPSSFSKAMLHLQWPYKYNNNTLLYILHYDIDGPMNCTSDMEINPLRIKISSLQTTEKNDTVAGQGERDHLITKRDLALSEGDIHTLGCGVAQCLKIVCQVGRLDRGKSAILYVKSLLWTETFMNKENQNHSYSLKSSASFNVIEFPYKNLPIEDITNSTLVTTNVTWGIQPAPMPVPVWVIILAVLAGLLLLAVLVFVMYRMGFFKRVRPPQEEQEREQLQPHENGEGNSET
Sequence of αvβ6 (P18564 22-788): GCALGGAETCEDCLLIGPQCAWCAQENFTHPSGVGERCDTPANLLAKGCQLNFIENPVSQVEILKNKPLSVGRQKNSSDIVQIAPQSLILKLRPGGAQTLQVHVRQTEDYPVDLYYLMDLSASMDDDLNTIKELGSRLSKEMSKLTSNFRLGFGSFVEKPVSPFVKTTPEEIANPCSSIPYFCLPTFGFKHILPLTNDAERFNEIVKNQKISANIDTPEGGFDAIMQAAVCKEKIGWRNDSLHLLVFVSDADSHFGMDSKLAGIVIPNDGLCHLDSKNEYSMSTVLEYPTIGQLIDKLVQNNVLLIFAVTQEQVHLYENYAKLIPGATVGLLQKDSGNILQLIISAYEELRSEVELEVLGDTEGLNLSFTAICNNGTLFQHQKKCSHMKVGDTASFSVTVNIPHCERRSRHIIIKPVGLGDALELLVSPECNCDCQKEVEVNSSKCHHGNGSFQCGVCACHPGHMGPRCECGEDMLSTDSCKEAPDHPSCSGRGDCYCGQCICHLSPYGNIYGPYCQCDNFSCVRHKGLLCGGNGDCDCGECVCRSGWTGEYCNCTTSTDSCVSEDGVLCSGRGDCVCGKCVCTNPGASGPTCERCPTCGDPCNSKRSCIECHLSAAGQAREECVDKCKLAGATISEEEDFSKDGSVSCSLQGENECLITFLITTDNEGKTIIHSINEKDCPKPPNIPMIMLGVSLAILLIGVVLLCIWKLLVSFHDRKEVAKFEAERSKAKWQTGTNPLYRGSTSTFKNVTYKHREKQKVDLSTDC

SMILES: COCCN(CCCCc1ccc2c(n1)NCCC2)CC[C@H](Nc1ncnc2ccccc12)C(=O)O [Compound 5, (S)-4-((2-methoxyethyl) (4-(5,6,7,8-tetrahydro-1,8-naphthyridin-2-yl)butyl)amino)-2-(quinazolin-4-ylamino) butanoic acid]
- COL1A1 expression in PCLS from human IPF lung tissue (COL1A1): dose dependent reduction
- inhibition of cell adhesion in the IPF-derived lung fibroblasts [1]: substantially inhibited
- Type I Collagen gene Col1a1 expression [2]: decreased Type I Collagen gene Col1a1 expression substantially
- reduction in COL1A1 expression at ≥2 nM (COL1A1 expression): ≥ 47%
- half-life [3]: 35 to 55 h
- reduction in pSMAD2 levels (pSMAD2/SMAD2 ratio) (pSMAD2/SMAD2; 80 mg QD 7 days, 6 hours post dose Day 7): 41.2%
- reduction in pSMAD2 levels (pSMAD2/SMAD2 ratio) (pSMAD2/SMAD2; 80 mg QD 7 days, 24 hours post dose Day 7): 36.6%
- reduction in pSMAD2 levels (pSMAD2/SMAD2 ratio) (pSMAD2/SMAD2; 160 mg QD 7 days, 6 hours post dose Day 7): 57.8%
- reduction in pSMAD2 levels (pSMAD2/SMAD2 ratio) (pSMAD2/SMAD2; 160 mg QD 7 days, 24 hours post dose Day 7): 53.2%
- IC50 (αvβ6): 10 nM
